Series [1] is described as follows: Evans blue dye (EBD) delivery to tumor, thermal enhancement ratio (TER). It counts as in vivo, mice. The method, then: Mouse sarcoma S-180 cells were propagated by intraperitoneal injection (5×10^6 S-180 cells in 1 ml phosphate buffered saline (PBS)) in female CD-1 mice (4-6 weeks old) and allowed to grow until 15% weight gain was observed. Animals were then euthanized by CO2 gas inhalation and the cells were harvested from the abdominal cavity. The cells were then washed to remove blood, diluted and subcutaneously injected into each flank of the animal (2×10^6 cells/flank in 200 μl PBS) while anesthetized with isofluorane. Tumors were then allowed to grow until average tumor volume reached 50-100 mm^3 (usually 7-10 days).
The animals were separated randomly into groups. Half received 200 μl of GNRs (9.6 mg/kg, OD=120) and the other half saline by intravenous injection through the tail vein. After 24 hours, enough time for the GNRs to accumulate in the tumor at 1.22% injected dosed based on previous experiments and other reports in the literature (Dickerson et al., 2008), the animals were anesthetized and the areas around the tumors were shaved and swabbed with 50% propylene glycol to enhance laser penetration depth. After 20 minutes EBD (10 mg/kg in 200 μl saline) was injected intravenously and a 33 gauge needle thermocouple (Omega #HYPO-33-1-T-G-60-SMPW-M) was inserted into the center of the tumor to monitor tumor temperatures. After roughly 10 seconds that temperature data was collected, an 808 nm fiber coupled laser diode (Oclaro #BMU6-808-02-R01) with collimating lens (Thorlabs #F810SMA-780, spot size=7 mm) was directed over the right tumor and radiated. Two different laser powers were used in this study (1.6 and 1.2 W/cm^2) such that one group received severe and the other moderate tumor hyperthermia. After 10 minutes of radiation, the laser was turned off and tumors were allowed to cool for two minutes before removal of the temperature probe.
After the animals were allowed to rest for 5 hours, enough time for the EBD to be cleared from the blood, the animals were sacrificed by CO2 inhalation. Both tumors were collected, weighed and the EBD was extracted in 1.5 ml of formamide for 48 hrs at 60° C. The EBD content was then measured spectrophotometrically at 620 nm and divided by the weight of the tumor. The extravasation of EBD was then calculated as a ratio of the right (treated) to left (untreated) tumor and expressed as a thermal enhancement ratio (TER).

Series [2] has as its target T1, αvβ3 integrins (Homo sapiens, UniProt P05106+P06756).
T1 construct: endogenous in cells; host or cells: HUVEC
The series is described as follows: Competitive inhibition of RGDfK-GNR binding with echistatin. It counts as cell-based. The settings on record: echistatin 50 nM co-incubation; HUVECs; 4° C. for 2 hours; binding buffer. As to the method:
Confirmation of RGDfK-GNR specificity to αvβ3 integrins was performed by competitive inhibition of binding with echistatin. In brief, HUVEC cells were grown to 50% confluency on fibronectin coated cover slips. The media was then removed and replaced with cold binding buffer (20 mmol/L Tris, pH 7.4, 150 mmol/L NaCl, 2 mmol/L CaCl2, 1 mmol/L MgCl2, 1 mmol/L MnCl2, 0.1% bovine serum albumin) containing RGDfK-GNRs (10 μg/ml) and HUVECs were co-incubated at 4° C. for 2 hours with or without 50 nM echistatin (Sigma-Aldrich). Cells were then washed three times with cold binding buffer, mounted to a slide and imaged by high-resolution dark field microscopy.

Values joined by “and” are separate entries in the source; they are usually repeats but may differ in a detail not shown here. Identical values can stand only once.

In the case of `Cc1cc(-c2ccc(/N=N/c3ccc4c(S(=O)(=O)[O-])cc(S(=O)(=O)[O-])c(N)c4c3O)c(C)c2)ccc1/N=N/c1ccc2c(S(=O)(=O)[O-])cc(S(=O)(=O)[O-])c(N)c2c1O.[Na+].[Na+].[Na+].[Na+]` [EBD, Evans blue dye], the “TER (EBD in treated/untreated tumor)” value in series [1] (Laser alone (no GNRs), 1.2 W/cm^2) is 0.94 ± 0.25; in series [1] (Laser alone (no GNRs), 1.6 W/cm^2), 1.05 ± 0.15; in series [1] (PPTT (GNRs + laser), 1.2 W/cm^2) it was 1.68 and 1.68 ± 0.65; in series [1] (PPTT (GNRs + laser), 1.6 W/cm^2, EBD 10 mg/kg i.v., 5 hours), 1.82 and 1.82 ± 0.40. Besides, in series [1] (laser treatment without the presence of GNRs (power not specified)), the TER entry is listed as “around 1.0”.
Turning to echistatin, in series [2], the “Inhibition of RGDfK-GNR binding to the cell's surface” value is listed as “almost complete inhibition”.

The values are drawn from patent US20170290915A1, “METHODS FOR DELIVERING AN ANTI-CANCER AGENT TO A TUMOR” (priority 2010, published 2017).
